In patent US20140011700A1 (Bristol-Myers Squibb Company, published 2014):

Legend:
[1] = system: H3N2 (A/Brisbane/10/2007); assay type: cell-based
H1N1 (A/CA/07/2009) = assay type: cell-based
[2] = molecular target: NP (nucleoprotein, A/WSN/33) (Influenza A virus, UniProt P15682)
[3] = system: H1N1 (A/SolomonIslands/3/2006); assay type: cell-based; conditions: read-out: A/Solomon-Islands/3/2006 (EC50)
A/WSN/33 = assay type: cell-based
[4] = molecular target: Influenza A nucleoprotein (NP) (Influenza A virus (A/WSN/33, H1N1), UniProt P15682 P15682:8-498); test: SPR; conditions: tags: N-terminal hexahistidine (pET28A), expressed in E. coli Rosetta II (DE3); label: 5'-biotin

COc1ccccc1-c1noc(C)c1C(=O)N1CCN(c2ccc([N+](=O)[O-])cc2Cl)CC1 [Compound B]
EC50 [1]: 7310 ± 1800 nM | EC50 (H1N1 (A/CA/07/2009)): > 20000 nM | % Pd (polydispersity) [2]: 10.2% | Rh (nm), hydrodynamic radius [2]: 8.2 ± 0.3 nm | EC50 [3]: 660 ± 220 nM

Cc1cc(Br)cnc1N1CCN(C(=O)c2c(-c3ccccc3Cl)noc2C)CC1 [Compound D]
EC50 [1]: > 20000 nM | EC50 (H1N1 (A/CA/07/2009)): > 20000 nM | % Pd (polydispersity) [2]: 13.5% | Rh (nm), hydrodynamic radius [2]: 8.9 ± 0.2 nm | EC50 [3]: 2800 ± 530 nM | EC50 (A/WSN/33): 1020 ± 1800 nM

B1: biotinylated 2'-O-methylated RNA oligonucleotide (ssRNA)
RNA: UAGAAACAAGGGUGUUUUUUCAGAUCUAUUAAACUUCACCCUGCUUUUGCU
modifications: 2'-OMe (stated as 2-O-methylated, positions not specified)
Kd [4]: 11.2 nM
